Measured values published in patent publication EP3626820A1, “ANTICANCER COMPOSITIONS CONTAINING MIRNA MIMICS AND USES THEREOF” (Fundación Imdea Nanociencia, priority 2018, dated 2020).

Tests used:
Mel 202 cells [1] = assay: Cell cycle analysis by flow cytometry (propidium iodide); format: cell-based; conditions: Mel 202 cells harvested after treatment; SN38 25 nM; free (not on nanoparticles)
Method: The samples were trypsinized (BioWest) and fixed with paraformaldehyde 1 % (v/v). The samples were stained for 3 h with 10 µ g/sample RNAsa A from Thermo Scientific and 20 µ g/sample propidium iodide from Sigma. The cell cycle analysis was performed in a Beckman coulter Cytomics 500 Flow cytometer and acquired data were analyzed with the Multicycle software.
These experiments were performed in cytometry service of Biotechnology National Centre of Spain.

Mel 202 cells [2] = assay: alamarBlue cell viability assay; format: cell-based; conditions: Mel202, SN38 incubated 24 h, alamarBlue after additional 24 h
Method: Mel 202 cells were cultured in RPMI medium with 10 % fetal bovine serum (FBS), 1 % […]-Penicillin and 1 % L-Glutamine at 37 °C in an incubator. All the procedures were performed inside a laminar flow hood Telstar CV-30/70. Cells were grown in 24 wells plates (30000 cells).
stock solution of Resazurin sodium salt (1 mg/ml) in PBS was diluted 1 % (v/v) in complete RPMI. After incubation 3 h with the cells, the fluorescence was measured in a plate reader Synergy H4 Hybrid reader (BioTEK). Excitation (Ex) 550 nm; Emission (Em) 590 nm.
50 µl OptiMem was mixed with oligonucleotides (14, 15, 16, 17) or DNA mix 1. Then, it was mixed with 1 µl Lipofectamine 2000 in 50 µl optiMEM. The final mixture was incubated for 20 min and then 100 µl was added to cells. The final concentration of 14, 15, 16, 17 or DNA mix 1 was 140 nM. After 24 h the cells were washed 3 times with saline phosphate buffer (PBS) and complete medium was added.
SN38 stock solution was prepared at 100 µM in DMSO. Then different concentrations of SN38 (100 nM, 50 nM, 25 nM) were prepared in complete medium. It was incubated 24 h with the cells, then washed with PBS. After additional 24 h, the alamarBlue assay was carried out. […]
A volume of 100 µ L functionalized AuNPs were added in optiMEM (500 µ L total volume). The cells were incubated for 24 h, washed with PBS and the viability assessed.

Question: With CCc1c2c(nc3ccc(O)cc13)-c1cc3c(c(=O)n1C2)COC(=O)[C@]3(O)CC [SN38, 7-ethyl-10-hidroxycamptothecin] as the compound, how does the “effect on the cell cycle” value (Mel 202 cells [1]) read?
Answer: Its value is “significantly increases G2/M”.

Question: What about the IC50 (Mel 202 cells [2]) of the same compound?
Answer: The IC50 was 100 nM.
